Bridge positions count the residues as written; N and C are the ends. Square brackets hold non-standard residues; d marks the D form. Ends that are not written are not given here. Peptide text beside a SMILES is read from it. Orn = NCCC[C@H](N)C(=O)O
System: calcium concentration in the serum
Assay: Test 1: reduction of calcium level in serum after tail vein administration to rats
Assay type: in vivo, rats of the Wistar strain
Settings: 1 ml/kg tail vein, female Wistar rats
Protocol: Six-weeks-old female rats of the Wistar strain (each group consisting of 4 rats) were used as the test animal, and the peptides of the present invention obtained in the examples given hereinafter were tested at concentrations adjusted with a 1% aqueous solution of sodium acetate (pH 4,0) to which 0.1% bovine serum albumin (BSA) was added. The solution was adjusted to a concentration of 166 μg/ml 830 ng/ml or 83 ng/ml and administered with the tail vein in an amount of 1 ml/kg. The back of the rat was fixed and blood was collected just before the administration, and at predetermined intervals after the administration, from the neck vein. The amount of blood collected each time was 0.3 ml. The sampled blood was subjected to centrifugal separation at 3500 rpm for 20 minutes to separate serum and the calcium content in the separated serum was measured by TBA-380 (supplied by Toshiba) using a Wako calcium-measuring kit (o-cpc method), and the ratio of reduction of the calcium concentration in the serum was determined.

[1] = concentration 83 ng/ml, 0 hour (just before administration)
[2] = concentration 83 ng/ml, 2 hours
[3] = concentration 83 ng/ml, 4 hours
[4] = concentration 83 ng/ml, 6 hours
[5] = concentration 830 ng/ml, 0 hour (just before administration)
[6] = concentration 830 ng/ml, 1 hour
[7] = concentration 830 ng/ml, 2 hours
[8] = concentration 830 ng/ml, 4 hours
[9] = concentration 830 ng/ml, 6 hours
[10] = concentration 166 ng/ml, 0 hour (just before administration)
[11] = concentration 166 ng/ml, 1 hour
[12] = concentration 166 ng/ml, 2 hours
[13] = concentration 166 ng/ml, 4 hours
[14] = concentration 166 ng/ml, 6 hours

Compound	Serum calcium level as percent of pre-dose baseline [1] [%]	Serum calcium level as percent of pre-dose baseline (concentration 83 ng/ml, 1 hour) [%]	Serum calcium level as percent of pre-dose baseline [2] [%]	Serum calcium level as percent of pre-dose baseline [3] [%]	Serum calcium level as percent of pre-dose baseline [4] [%]	Serum calcium level as percent of pre-dose baseline [5] [%]	Serum calcium level as percent of pre-dose baseline [6] [%]	Serum calcium level as percent of pre-dose baseline [7] [%]	Serum calcium level as percent of pre-dose baseline [8] [%]	Serum calcium level as percent of pre-dose baseline [9] [%]	Serum calcium level as percent of pre-dose baseline [10] [%]	Serum calcium level as percent of pre-dose baseline [11] [%]	Serum calcium level as percent of pre-dose baseline [12] [%]	Serum calcium level as percent of pre-dose baseline [13] [%]	Serum calcium level as percent of pre-dose baseline [14] [%]
CC[C@H](C)[C@H](NC(=O)[C@H](C)NC(=O)[C@@H](NC(=O)[C@H](CCC(N)=O)NC(=O)[C@@H]1CCCN1C(=O)[C@H](Cc1ccc(O)cc1)NC(=O)[C@@H](NC(=O)[C@H](CCC(N)=O)NC(=O)[C@H](CC(C)C)NC(=O)[C@H](CCCCN)NC(=O)[C@H](Cc1c[nH]cn1)NC(=O)[C@H](CC(C)C)NC(=O)[C@H](CCC(=O)O)NC(=O)[C@H](CCC(N)=O)NC(=O)[C@H](CO)NC(=O)[C@H](CC(C)C)NC(=O)[C@H](CCCCN)NC(=O)CNC(=O)[C@H](CC(C)C)NC(=O)[C@H](CC(C)C)NC(=O)[C@@H]1CCC(=O)NCCC[C@H](N)C(=O)N[C@@H](CC(N)=O)C(=O)N[C@@H](CC(C)C)C(=O)N[C@@H](CO)C(=O)N[C@@H]([C@@H](C)O)C(=O)N1)[C@@H](C)O)[C@@H](C)O)C(=O)NCC(=O)N[C@H](C(=O)NCC(=O)N[C@@H](C)C(=O)N1CCC[C@H]1C(N)=O)C(C)C [Peptide No. 30] (H-[Orn]NLSTELLGKLSQELHKLQTYPQTAIGVGAP-NH2; lactam 1-6)	100.0	77.2	80.7	83.2	77.7	100.0	74.0	63.8	65.4	73.9					
Peptide No. 22: novel calcitonin-derivative peptide, aminosuberic acid (carba) ring, Leu8, SEQ ID NO:22 (XGNLSTALLGKLSQELHKLQTYPQTAIGVGAP; aminosuberic acid carba ring)	100.0	76.1	70.7	70.7	75.9	100.0	77.2	70.7	55.8	48.5					
AGNLSTAMLGKLSQELHKLYPQTAIGVGAP-NH2 [Peptide No. 16]											100.0	80.0	86.5	84.8	85.7
CC[C@H](C)[C@H](NC(=O)[C@H](C)NC(=O)[C@@H](NC(=O)[C@H](CCC(N)=O)NC(=O)[C@@H]1CCCN1C(=O)[C@H](Cc1ccc(O)cc1)NC(=O)[C@@H](NC(=O)[C@H](CCC(N)=O)NC(=O)[C@H](CC(C)C)NC(=O)[C@H](CCCCN)NC(=O)[C@H](Cc1c[nH]cn1)NC(=O)[C@H](CC(C)C)NC(=O)[C@H](CCC(=O)O)NC(=O)[C@H](CCC(N)=O)NC(=O)[C@H](CO)NC(=O)[C@H](CC(C)C)NC(=O)[C@H](CCCCN)NC(=O)CNC(=O)[C@H](CC(C)C)NC(=O)[C@H](CC(C)C)NC(=O)[C@@H]1CCCCNC(=O)C[C@H](N)C(=O)N[C@@H](CC(N)=O)C(=O)N[C@@H](CC(C)C)C(=O)N[C@@H](CO)C(=O)N[C@@H]([C@@H](C)O)C(=O)N1)[C@@H](C)O)[C@@H](C)O)C(=O)NCC(=O)N[C@H](C(=O)NCC(=O)N[C@@H](C)C(=O)N1CCC[C@H]1C(N)=O)C(C)C [Peptide No. 24] (H-DNLSTKLLGKLSQELHKLQTYPQTAIGVGAP-NH2; lactam 1-6)	100.0	71.1	70.7	85.6	80.1	100.0	69.1	61.9	54.4	53.0					
CC[C@H](C)[C@H](NC(=O)[C@H](C)NC(=O)[C@@H](NC(=O)[C@H](CCC(N)=O)NC(=O)[C@@H]1CCCN1C(=O)[C@H](Cc1ccc(O)cc1)NC(=O)[C@@H](NC(=O)[C@H](CCC(N)=O)NC(=O)[C@H](CC(C)C)NC(=O)[C@H](CCCCN)NC(=O)[C@H](Cc1c[nH]cn1)NC(=O)[C@H](CC(C)C)NC(=O)[C@H](CCC(=O)O)NC(=O)[C@H](CCC(N)=O)NC(=O)[C@H](CO)NC(=O)[C@H](CC(C)C)NC(=O)[C@H](CCCCN)NC(=O)CNC(=O)[C@H](CC(C)C)NC(=O)CNC(=O)[C@@H]1CSSC[C@H](N)C(=O)NCC(=O)N[C@@H](CC(N)=O)C(=O)N[C@@H](CC(C)C)C(=O)N[C@@H](CO)C(=O)N[C@@H]([C@@H](C)O)C(=O)N1)[C@@H](C)O)[C@@H](C)O)C(=O)NCC(=O)N[C@H](C(=O)NCC(=O)N[C@@H](C)C(=O)N1CCC[C@H]1C(N)=O)C(C)C [Peptide No. 9] (H-CGNLSTCGLGKLSQELHKLQTYPQTAIGVGAP-NH2; disulfide 1-7)	100.0	81.0	87.5	84.0	83.2	100.0	72.8	78.4	86.8	82.4					
AGNLSTAMLGKLSQELHKLQTYPQTAIGVGAP-NH2 [Peptide No. 14]											100.0	76.0	70.0	74.3	73.7
CC[C@H](C)[C@H](NC(=O)[C@H](C)NC(=O)[C@@H](NC(=O)[C@H](CCC(N)=O)NC(=O)[C@@H]1CCCN1C(=O)[C@H](Cc1ccc(O)cc1)NC(=O)[C@@H](NC(=O)[C@H](CCC(N)=O)NC(=O)[C@H](CCCCN)NC(=O)[C@H](Cc1c[nH]cn1)NC(=O)[C@H](CC(C)C)NC(=O)[C@H](CCC(=O)O)NC(=O)[C@H](CCC(N)=O)NC(=O)[C@H](CO)NC(=O)[C@H](CC(C)C)NC(=O)[C@H](CCCCN)NC(=O)CNC(=O)[C@H](CC(C)C)NC(=O)[C@H](CCSC)NC(=O)[C@@H]1CSSC[C@H](N)C(=O)NCC(=O)N[C@@H](CC(N)=O)C(=O)N[C@@H](CC(C)C)C(=O)N[C@@H](CO)C(=O)N[C@@H]([C@@H](C)O)C(=O)N1)[C@@H](C)O)[C@@H](C)O)C(=O)NCC(=O)N[C@H](C(=O)NCC(=O)N[C@@H](C)C(=O)N1CCC[C@H]1C(N)=O)C(C)C [Peptide No. 2] (H-CGNLSTCMLGKLSQELHKQTYPQTAIGVGAP-NH2; disulfide 1-7)						100.0	86.7	87.7	92.8	90.1					
CC[C@H](C)[C@H](NC(=O)[C@H](C)NC(=O)[C@@H](NC(=O)[C@H](CCC(N)=O)NC(=O)[C@@H]1CCCN1C(=O)[C@H](Cc1ccc(O)cc1)NC(=O)[C@@H](NC(=O)[C@H](CCC(N)=O)NC(=O)[C@H](CC(C)C)NC(=O)[C@H](CCCCN)NC(=O)[C@H](Cc1c[nH]cn1)NC(=O)[C@H](CC(C)C)NC(=O)[C@H](CCC(=O)O)NC(=O)[C@H](CCC(N)=O)NC(=O)[C@H](CO)NC(=O)[C@H](CC(C)C)NC(=O)[C@H](CCCCN)NC(=O)CNC(=O)[C@H](CC(C)C)NC(=O)[C@H](CCSC)NC(=O)[C@@H]1CC(=O)NCCCC[C@H](N)C(=O)N[C@@H](CC(N)=O)C(=O)N[C@@H](CC(C)C)C(=O)N[C@@H](CO)C(=O)N[C@@H]([C@@H](C)O)C(=O)N1)[C@@H](C)O)[C@@H](C)O)C(=O)NCC(=O)N[C@H](C(=O)NCC(=O)N[C@@H](C)C(=O)N1CCC[C@H]1C(N)=O)C(C)C [Peptide No. 27] (H-KNLSTDMLGKLSQELHKLQTYPQTAIGVGAP-NH2; lactam 1-6)	100.0	93.5	94.3	86.4	82.7	100.0	79.5	94.1	87.0	82.9					

From patent US6127519A, “Calcitonin derivatives” (Tsumura & Co., priority 1990, dated 2000)
